Results published in paper PMC11096368, “Transcriptomic signature, bioactivity and safety of a non-hepatotoxic analgesic generating AM404 in the midbrain PAG region” (Scientific Reports, 2024).

How the values were obtained:
beagle dogs = test: 28-day oral toxicity study with 14-day recovery (GLP); assay type: in vivo, dog
Procedure: (§1) SRP-001 was supplied by Olon Ricerca Bioscience as an off-white powder. The test article was then prepared into dosing suspensions for oral administration via gavage (Calvert Labs/Altasciences, Scott Township, PA USA). Thirty-two experimentally naïve Beagle dogs (16 males and 16 females), 8–9 months old and weighing 6.7–10.5 kg for males and females at the outset of the study, were administered 0, 165, 330, or 495 mg/kg/d. Animals were dosed three times daily (3–5 h between doses) for 28 consecutive days. Prior to this dosing schedule, the dosing was initiated with once daily dosing at 0, 100, 300, or 900 mg/kg at a dose volume of 5 to 10 ml/kg. Due to adverse clinical signs noted following dosing of all groups at a dose volume of 10 ml/kg, dosing of the animals was suspended on day 2 for males and day 1 for females. The study was restarted with T.I.D. dosing in lower dose volume to reduce vehicle-related toxicity.
(§2) In-life data from the initial start of the study using once daily dosing were not included in the report but are maintained in the study file. Following the restart of the study, the study was conducted as follows. Mortality/morbidity was performed twice daily and once prior to the scheduled sacrifice. Animals were observed prior to each dose administration and 1–3 h after each dose administration. Animals were also observed once daily on non-dosing days and once prior to scheduled sacrifice. Body weights were recorded prior to randomization/selection, prior to the first dose administration on day 1 and weekly thereafter. Food consumption was determined daily. Ophthalmology examinations and electrocardiograms were performed before treatment initiation and during the last week of dosing. Blood for evaluation of hematology, coagulation and clinical chemistry and urine for urinalysis was collected prior to treatment initiation and on days 29 and 43. Blood for toxicokinetic evaluation was collected at selected timepoints on days 1 and 28. All surviving animals were sacrificed on day 29 or day 43. Selected tissues were harvested at necropsy, selected organs weighed, and selected tissues evaluated microscopically.
(§3) Due to the limited magnitude of the changes in hematology parameters and the corresponding changes in reticulocytes, this finding was not considered adverse.
(§4) This finding was indicative of the biliary system starting to be overwhelmed and was considered adverse. Other microscopic findings of the liver included Kupffer cell pigment, Kupffer cell erythrophagocytosis, and Kupffer cell hypertrophy/hyperplasia. The Kupffer cell changes were thought to be, at least in part, due to phagocytosis of erythrocytes resulting in the accumulation of cytoplasmic pigment and increased demand for Kupffer cells resulting in hypertrophy/hyperplasia. These microscopic changes correlated with increased liver organ weights. Microscopic evaluation also identified thyroid gland follicular cell hypertrophy.
(§5) Only microscopic changes in Kupffer cell pigment and erythrophagocytosis and minimal increased erythroid cellularity of the bone marrow were still present in Group-4 animals following the recovery period. Exposure to SRP-001 was dose-dependent and generally dose-proportional to greater than dose-proportional from 165 to 330 mg/kg/d and less than dose-proportional from 330 to 495 mg/kg/d. Exposure to SRP-001 following 28 consecutive days of oral dosing was 2 to 5 times less than exposure observed on day 1. Based on the clinical signs, microscopic changes, and clinical pathology changes, the no-adverse-effect level for SRP-001 was 330 mg/kg/d when given T.I.D. for 28 d.

[1] = as above; assay type: in vivo, dog; details: both sexes, Beagle, dog, in vivo, oral; given T.I.D. for 28 days; read-out: No adverse effect level (NOAEL)
Procedure: as §1, §2, §3, §4, §5

Sprague–Dawley rats = test: 5-day repeat-dose oral toxicity and toxicokinetic study (non-GLP); assay type: in vivo
Procedure: (§6) As part of a two-phase study, repeat-dose toxicity and toxicokinetics of SRP-001, when administered via oral gavage once daily to Sprague–Dawley rats for 5 d, was done (Calvert Labs/Altasciences, Scott Township, PA USA). The doses selected for Phase II were based on the results of Phase I. SRP-001 was administered to 20 naïve rats (5/group in Groups 5–8) once daily for 5 days via oral gavage for toxicology evaluation and once to 18 naïve rats (6/group in Groups 9–11) for toxicokinetic evaluation.
(§7) Mortality/morbidity was performed twice daily and once prior to sacrifice. Clinical observations were evaluated prior to each dose administration and approximately 1–3 h post-dose for animals in Groups 5–8. Body weights were recorded prior to randomization/selection, prior to dose administration on day 1 for animals in Groups 5–11, and prior to dose administration on day 5 for Groups 5–8. Food consumption was recorded for animals from Groups 5–8 on day 5. Blood for evaluation of hematology, coagulation and clinical chemistry and urine for urinalysis was collected from animals in Groups 5–8 on day 6. All animals in Groups 5–8 were sacrificed on […]. Selected tissues were harvested at necropsy, selected organs weighed, and selected tissues preserved. Blood for toxicokinetic evaluation was collected from animals in Groups 9–11 at selected timepoints on day 1 to ensure comprehensive data capture. These timepoints include 0 h (pre-dose) and post-dose intervals of 1, 2, 4, 8, and 24 h on both Day 1 and […] of the study. This schedule allows for a robust assessment of SRP-001's pharmacokinetic profile, including absorption, distribution, metabolism, and excretion and is in line with current FDA-guidelines for GLP studies.
(§8) Clinical signs included soft feces, brown staining of the anogenital area, and a few instances of red staining of the muzzle. […] Half-lives were 6.19 and 6.86 h at mid and high doses, respectively. […] Based on these observations, SRP-001 was considered to be tolerated at 1200 mg/kg when administered once daily for 5 consecutive days.

[2] = as above; assay type: in vivo, rats; details: Sprague-Dawley, rat, blood, po
Procedure: as §6, §7, §8

[3] = both, Beagle, dog, in vivo, po, 28 d

CCN(CC)C(=O)c1ccccc1S(=O)(=O)NCC(=O)Nc1ccc(O)cc1 [SRP-001, N,N-diethyl-2-[[2-(4-hydroxyanilino)-2-oxo-ethyl]sulfamoyl]benzamide]
Body weights, food consumption, ophthalmology, electrocardiology, coagulation, urinalysis (beagle dogs; 28 days): No SRP-001 related changes
Reversibility after 14-day recovery period (beagle dogs; both, Beagle, dog, in vivo, 14 d): nearly all SRP-001-related changes observed on day 29 were reversible
Doses without treatment-related adverse effects (beagle dogs; [3]): up to 330 mg/kg/day
Exposure after 28 consecutive days relative to day 1 (beagle dogs; [3]): 2-5 times less
Clinical chemistry parameters (beagle dogs; dog, in vivo): increases in triglycerides and alkaline phosphatase and decreases in cholesterol
Clinical signs (beagle dogs; dog, in vivo): emesis, loose feces, and salivation
Hematology parameters (beagle dogs; dog, in vivo): decreases in red blood cells, hemoglobin, hematocrit, and mean corpuscular hemoglobin concentration
Reversibility after 14-day recovery period (beagle dogs; dog, in vivo): nearly all SRP-001 related changes observed on Day 29 were reversible
NOAEL at 28 d [1]: 330 mg/kg/day
AUC and Cmax levels versus dose (Sprague–Dawley rats; day 1): increased in a dose-dependent manner
Dose considered to be tolerated (Sprague–Dawley rats; once daily for 5 consecutive days): 1200 mg/kg
Liver weights and cholesterol levels (Sprague–Dawley rats; once daily for 5 days): Test article-related increases
half-life ([2]; high dose): 6.86 h
Tmax ([2]; low dose): 3 h
Tmax ([2]; mid and high doses): 4.5 h
half-life ([2]; mid dose): 6.19 h
